Experimental data from patent US20040210063A1 (priority 2001, published 2004).
Structures can show the parent of a compound that is named as a salt.

Legend:
human GSK-3β = human GSK-3β (Homo sapiens, UniProt P49841); assay: Assay (I): inhibition of GSK-3, 33P-ATP phosphorylation of a glycogen synthase derived substrate; type: biochemical; details: 35 μM substrate, 0.1 mM 33P-labeled ATP, 60 min at room temperature
Experimental: Inhibition of GSK-3 by a test compound was evaluated using human GSK-3β and a glycogen synthase derived substrate with the following amino acid sequence:
In brief, GSK-3β was incubated with 35 μM substrate and varying concentrations of test compound in a buffer containing 0.1 mM ^33P-labeled ATP, 10 mM magnesium acetate, 8 mM MOPS pH 7.0, 0.2 mM EDTA, 0.1% dithiothreitol and 0.03% Triton-X100 for 60 min at room temperature. The reaction was performed using 96-well plates. The reaction was terminated by adding 13 μl 2% phosphoric acid to each well, and 10 μl was spotted onto P30 paper which was washed 4 times in 0.5% phosphoric acid to remove non-incorporated ^33P-labeled ATP. After drying the radioactivity was counted in a Wallac. Dose-response profiles were generated, and the IC50 value for inhibition of GSK-3 by the test compound was calculated using a four-parameter logistic function.

[1] = tested on: cyclin-dependent kinases (CDKs); details: at the tested concentration; Table I of WO 99/21845; cited from earlier work

Chain of human GSK-3β (P49841 whole entry): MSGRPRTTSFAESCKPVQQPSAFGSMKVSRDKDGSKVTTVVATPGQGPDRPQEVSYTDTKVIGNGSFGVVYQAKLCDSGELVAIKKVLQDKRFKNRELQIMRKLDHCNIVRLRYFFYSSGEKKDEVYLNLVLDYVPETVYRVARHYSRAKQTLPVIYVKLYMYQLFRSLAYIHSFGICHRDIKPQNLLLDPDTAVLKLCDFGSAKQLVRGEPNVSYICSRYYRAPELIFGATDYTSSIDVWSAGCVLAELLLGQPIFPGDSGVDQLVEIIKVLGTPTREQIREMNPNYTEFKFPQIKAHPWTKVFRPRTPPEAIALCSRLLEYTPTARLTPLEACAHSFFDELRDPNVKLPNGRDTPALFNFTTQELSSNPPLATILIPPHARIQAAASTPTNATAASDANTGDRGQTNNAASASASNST

With `CN1CCN(CCCNc2nc(N)c(C(=O)c3ccc(Cl)s3)s2)CC1` (as salt: hydrochloride) [Example 8, {4-Amino-2-[3-(4-methylpiperazin-1-yl)propylamino]thiazol-5-yl}-(5-chlorothiophen-2-yl)methanone] the melting point was 210 to 212 °C.

In the case of `CN1CCN(CCCNc2nc(N)c(C(=O)c3cccc(OCc4ccccc4)c3)s2)CC1` (as salt: hydrochloride) [Example 10, {4-Amino-2-[3-(4-methylpiperazin-1-yl)propylamino]thiazol-5-yl}-(3-benzyloxyphenyl)methanone], the melting point is reported as 99 to 100 °C.

`CC(C)(C)OC(=O)NCCCNc1nc(N)c(C(=O)c2ccc(Cl)s2)s1` [Example 3, 3-[4-Amino-5-(5-chlorothiophene-2-carbonyl)thiazol-2-ylamino]propylcarbamic acid tert-butyl ester] showed an IC50 (human GSK-3β) of less than 1000 nM.

With `CC(C)(C)OC(=O)N1CCC(Nc2nc(N)c(C(=O)c3cccc(OCc4ccccc4)c3)s2)CC1` [Example 5, 4-[4-Amino-5-(3-benzyloxybenzoyl)thiazol-2-ylamino]piperidine-1-carboxylic acid tert-butyl ester] the IC50 (human GSK-3β) was less than 1000 nM.

`CC(C)(C)OC(=O)NCCCNc1nc(N)c(C(=O)c2cccc(OCc3ccccc3)c2)s1` [Example 6, {3-[4-Amino-5-(3-benzyloxybenzoyl)thiazol-2-ylamino]propyl}carbamic acid tert-butyl ester] gave an IC50 (human GSK-3β) of less than 1000 nM.

Compound `Nc1nc(NCCCN2CCCC2=O)sc1C(=O)c1ccc(Cl)s1` [Example 7, 1-{3-[4-Amino-5-(5-chlorothiophene-2-carbonyl)thiazol-2-ylamino]propyl}pyrrolidin-2-one] has an IC50 (human GSK-3β) of less than 1000 nM and a melting point of 224 to 225 °C.

`Nc1nc(NCCCN2CCCC2=O)sc1C(=O)c1cccc(OCc2ccccc2)c1` [Example 9] showed an IC50 (human GSK-3β) of less than 1000 nM and a melting point of 184 °C.

`CN1CCN(CCCNc2nc(N)c(C(=O)c3cccc(OCc4ccccc4)c3)s2)CC1` [Example 10, {4-Amino-2-[3-(4-methylpiperazin-1-yl)propylamino]thiazol-5-yl}-(3-benzyloxyphenyl)methanone] showed an IC50 (human GSK-3β) of less than 1000 nM.

In the case of `Nc1nc(NCCN2CCCCC2)sc1C(=O)c1ccc(F)cc1` [I(6)], the CDK inhibition [1] is given as “No CDK inhibition was observed”.
